In ChEMBL document CHEMBL5724914, “Linking interpersonal differences in gut microbiota composition and drug biotransformation activity” (2024):

How the values were obtained:
[1] = (§1) The drug is tested on Z-011 corresponding to mouse gut metagenome with ENA study accession number: PRJEB37062 and ENA sample accession number: ERS12561811 for biotransformation under anaerobic condition. The drug concentrations were measured over 9 timepoints collected between 0 and 24 hours of incubation by liquid-chromatography-coupled mass spectrometry (LC–MS); conditions: 2 µM
[2] = as §1, with “Z-025” for “Z-011”, “rabbit” for “mouse”, “ERS12561824” for “ERS12561811”; conditions: 2 µM
[3] = as §1, with “WLS-086” for “Z-011”, “human” for “mouse”, “ERS12561752” for “ERS12561811”; conditions: 2 µM
[4] = as §1, with “WLS-370” for “Z-011”, “human” for “mouse”, “ERS12561793” for “ERS12561811”; conditions: 2 µM
[5] = as §1, with “Z-013” for “Z-011”, “rabbit” for “mouse”, “ERS12561813” for “ERS12561811”; conditions: 2 µM
[6] = as §1, with “WLS-027” for “Z-011”, “human” for “mouse”, “ERS12561744” for “ERS12561811”; conditions: 2 µM
[7] = as §1, with “Z-022” for “Z-011”, “ERS12561821” for “ERS12561811”; conditions: 2 µM
[8] = as §1, with “Z-028” for “Z-011”, “ERS12561827” for “ERS12561811”; conditions: 2 µM
[9] = human gut metagenome, 24 h, 2 µM
Further: call rule not given here.

Row | SMILES | Bacterial Biotransformation [1] | Bacterial Biotransformation [2] | Bacterial Biotransformation [3] | Bacterial Biotransformation [4] | Bacterial Biotransformation [5] | Bacterial Biotransformation [6] | Bacterial Biotransformation [7] | Bacterial Biotransformation [8] | Bacterial Biotransformation [9]
1 | OCCN1CCN(CCCN2c3ccccc3Sc3ccc(C(F)(F)F)cc32)CC1 [FLUPHENAZINE] | Compound metabolized | Compound metabolized | Compound metabolized | Compound metabolized | Compound NOT metabolized | Compound metabolized | Compound metabolized | Compound metabolized | Compound metabolized
2 | Fc1ccc([C@@H]2CCNC[C@H]2COc2ccc3c(c2)OCO3)cc1 [PAROXETINE] | Compound NOT metabolized | Compound NOT metabolized | Compound metabolized | Compound metabolized | Compound NOT metabolized | Compound metabolized | Compound metabolized | Compound NOT metabolized | Compound NOT metabolized
3 | CC(C)(C#N)c1cc(Cn2cncn2)cc(C(C)(C)C#N)c1 [ANASTROZOLE] | Compound NOT metabolized | Compound NOT metabolized | Compound NOT metabolized | Compound metabolized | Compound NOT metabolized | Compound NOT metabolized | Compound metabolized | Compound NOT metabolized | Compound NOT metabolized
4 | CCN(CC)CCOC(=O)C(Cc1cccc2ccccc12)CC1CCCO1.O=C(O)C(=O)O (configuration not stated) [NAFRONYL OXALATE] | Compound NOT metabolized | Compound NOT metabolized | Compound metabolized | Compound NOT metabolized | Compound NOT metabolized | Compound metabolized | Compound metabolized | Compound metabolized | Compound metabolized
5 | CNC(=C[N+](=O)[O-])NCCSCc1ccc(CN(C)C)o1 [RANITIDINE] | Compound metabolized | Compound NOT metabolized | Compound NOT metabolized | Compound NOT metabolized | Compound NOT metabolized | Compound NOT metabolized | Compound metabolized | Compound metabolized | Compound NOT metabolized
6 | O=C(Nc1ccccc1)OCC(CN1CCCCC1)OC(=O)Nc1ccccc1 (configuration not stated) [DIPERODON] | Compound NOT metabolized | Compound metabolized | Compound metabolized | Compound NOT metabolized | Compound NOT metabolized | Compound metabolized | Compound NOT metabolized | Compound NOT metabolized | Compound NOT metabolized
7 | NC12CC3CC(CC(C3)C1)C2 [AMANTADINE] | Compound NOT metabolized | Compound metabolized | Compound NOT metabolized | Compound NOT metabolized | Compound NOT metabolized | Compound NOT metabolized | Compound metabolized | Compound NOT metabolized | Compound NOT metabolized
8 | COC1=CC(=O)C[C@@H](C)[C@]12Oc1c(Cl)c(OC)cc(OC)c1C2=O [GRISEOFULVIN] | Compound metabolized | Compound metabolized | Compound metabolized | Compound metabolized | Compound metabolized | Compound metabolized | Compound metabolized | Compound metabolized | Compound metabolized
9 | CCN(CC)C(C)CN1c2ccccc2Sc2ccccc21 (configuration not stated) [ETHOPROPAZINE] | Compound NOT metabolized | Compound NOT metabolized | Compound metabolized | Compound metabolized | Compound NOT metabolized | Compound metabolized | Compound NOT metabolized | Compound NOT metabolized | Compound metabolized
10 | Cc1ccc(-c2nc3ccc(C)cn3c2CC(=O)N(C)C)cc1 [ZOLPIDEM] | Compound NOT metabolized | Compound NOT metabolized | Compound metabolized | Compound NOT metabolized | Compound NOT metabolized | Compound NOT metabolized | Compound metabolized | Compound NOT metabolized | Compound NOT metabolized
11 | CCC(COC(=O)c1cc(OC)c(OC)c(OC)c1)(c1ccccc1)N(C)C.O=C(O)/C=C\C(=O)O (configuration not stated) | Compound NOT metabolized | Compound NOT metabolized | Compound NOT metabolized | Compound NOT metabolized | Compound NOT metabolized | Compound metabolized | Compound metabolized | Compound metabolized | Compound NOT metabolized
12 | O=c1[nH]c2ccccc2n1C1CCN(CCCC(c2ccc(F)cc2)c2ccc(F)cc2)CC1 [PIMOZIDE] | Compound metabolized | Compound metabolized | Compound metabolized | Compound metabolized | Compound metabolized | Compound metabolized | Compound NOT metabolized | Compound NOT metabolized | Compound metabolized
13 | Cc1cc2c(cc1S(N)(=O)=O)S(=O)(=O)CCC2 | Compound NOT metabolized | Compound NOT metabolized | Compound NOT metabolized | Compound NOT metabolized | Compound NOT metabolized | Compound NOT metabolized | Compound NOT metabolized | Compound NOT metabolized | Compound NOT metabolized
14 | CC[C@@H](CO)NC(=O)[C@@H]1C=C2c3cccc4c3c(cn4C)C[C@H]2N(C)C1.O=C(O)/C=C\C(=O)O [METHYSERGIDE MALEATE] | Compound NOT metabolized | Compound NOT metabolized | Compound metabolized | Compound NOT metabolized | Compound NOT metabolized | Compound NOT metabolized | Compound NOT metabolized | Compound NOT metabolized | Compound NOT metabolized
15 | O=C(O)COCCN1CCN(C(c2ccccc2)c2ccc(Cl)cc2)CC1 (configuration not stated) [CETIRIZINE] | Compound NOT metabolized | Compound NOT metabolized | Compound metabolized | Compound metabolized | Compound NOT metabolized | Compound metabolized | Compound metabolized | Compound NOT metabolized | Compound metabolized
16 | CNS(=O)(=O)Cc1ccc2[nH]cc(CCN(C)C)c2c1.O=C(O)CCC(=O)O [SUMATRIPTAN SUCCINATE] | Compound NOT metabolized | Compound NOT metabolized | Compound metabolized | Compound NOT metabolized | Compound NOT metabolized | Compound NOT metabolized | Compound NOT metabolized | Compound NOT metabolized | Compound NOT metabolized
17 | Cc1ccc(S(=O)(=O)NC(=O)NN2CC3CCCC3C2)cc1 (configuration not stated) [GLICLAZIDE] | Compound metabolized | Compound NOT metabolized | Compound metabolized | Compound metabolized | Compound NOT metabolized | Compound metabolized | Compound metabolized | Compound metabolized | Compound metabolized
18 | C=CCN1CC[C@]23c4c5ccc(O)c4O[C@H]2C(=O)CC[C@@]3(O)[C@H]1C5 [NALOXONE] | Compound NOT metabolized | Compound NOT metabolized | Compound NOT metabolized | Compound NOT metabolized | Compound NOT metabolized | Compound NOT metabolized | Compound NOT metabolized | Compound NOT metabolized | Compound NOT metabolized
